SMILES strings stand for the structures.

The text below walks through data of patent publication US20080103185A1, “Process for Producing Thiazolidinedione Compound and Production Intermediate Thereof” (DAIICHI SANKYO COMPANY, LIMITED, priority 2005, published 2008).

A short description of this series: Test for quality and stability over time of compound (III^1) crystals, HPLC peak area content. The format is physicochemical. The note with it: HPLC area %. Here is the method:
Test for quality and stability over time of tert-butyl N-{2-{4-[(2,4-dioxothiazolidin-5-yl)methyl]phenoxyacetylamino}-5-methoxyphenyl}-N-methylcarbamate (compound (III^1))
Quality of four samples (the crystals obtained in Example 3, the crystals obtained in Example 3 and stored at 40° C. for 40 days, the purified crystals obtained in Example 4 and the purified crystals obtained in Example 4 and stored at 40° C. for 42 days) was analyzed. Quality was analyzed by the following method.
A solution of about 10 mg/L of the compound (III^1) in acetonitrile-water (4:1) was prepared.
About 20 μL of the sample solution was analyzed by high-performance liquid chromatography under the following conditions.
Column: L-column ODS 4.6×250 mm (Chemicals-Evaluation and Research Institute, Japan)
Mobile phase: 0.02 M ammonium acetate solution/acetonitrile mixture (55:45)
Detection wavelength: 220 nm
Measurement temperature: 40° C.
Peak areas were determined from chromatograms, respectively, to provide a content of each component (%) 100× (peak area of each component)/(total peak area of all components).

On to `COc1ccc(NC(=O)COc2ccc(CC3SC(=O)NC3=O)cc2)c(N(C)C(=O)OC(C)(C)C)c1` (centres unmarked) [Crystals of Example 3, tert-Butyl N-{2-{4-[(2,4-dioxothiazolidin-5-yl)methyl]phenoxyacetylamino}-5-methoxyphenyl}-N-methylcarbamate], for which, for the setting “crystals stored at 40° C. for 40 days, immediately after drying 0.05”, the “content of component at relative retention time 3.01” value is 0.05%. The “content of component at relative retention time 0.46” value (crystals stored at 40° C. for 40 days, immediately after drying 0.16) was 0.48%. For the setting “crystals stored at 40° C. for 40 days, immediately after drying 0.39”, the “content of component at relative retention time 0.43” value is given as 0.32%. For the same molecule, the “Total of other components” value (crystals stored at 40° C. for 40 days, immediately after drying 0.54) is on record as 0.56%. Moreover, the “content of component at relative retention time 0.21” value (crystals stored at 40° C. for 40 days, immediately after drying 0.60) amounted to 0.63%. Also, the Total of impurities (crystals stored at 40° C. for 40 days, immediately after drying 1.74) is listed as 2.04%. In addition, the “content of test substance (relative retention time 1.00)” value (crystals stored at 40° C. for 40 days, immediately after drying 98.26) came to 97.96%.

On to `COc1ccc(NC(=O)COc2ccc(CC3SC(=O)NC3=O)cc2)c(N(C)C(=O)OC(C)(C)C)c1` (centres unmarked) [Purified crystals of Example 4, tert-Butyl N-{2-{4-[(2,4-dioxothiazolidin-5-yl)methyl]phenoxyacetylamino}-5-methoxyphenyl}-N-methylcarbamate], for which the “content of component at relative retention time 3.01” value (purified crystals stored at 40° C. for 42 days, immediately after drying 0.04) came to 0.03%. For the same molecule, the “content of component at relative retention time 0.43” value (purified crystals stored at 40° C. for 42 days, immediately after drying 0.07) stood at 0.07%. In addition, the “content of component at relative retention time 0.46” value (purified crystals stored at 40° C. for 42 days, immediately after drying 0.08) is reported as 0.09%. Further, the “content of component at relative retention time 0.21” value (purified crystals stored at 40° C. for 42 days, immediately after drying 0.19) is on record as 0.26%. Besides, the “Total of other components” value (purified crystals stored at 40° C. for 42 days, immediately after drying 0.25) is recorded as 0.20%. This molecule came in with a Total of impurities (purified crystals stored at 40° C. for 42 days, immediately after drying 0.63) of 0.65%. In addition, the “content of test substance (relative retention time 1.00)” value (purified crystals stored at 40° C. for 42 days, immediately after drying 99.37) amounted to 99.35%.
